Read-outs that look alike come from different tables or passages of the source. Bridge positions count the residues as written; N and C are the ends. Square brackets hold non-standard residues; d marks the D form. Peptide text beside a SMILES is read from it.
Experiments:
[1] = tested on: H1N1 A1/Malaysia/302/1954; conditions: A1/Malaysia/302/1954, 48 h
H3N8 A/Miami/2/63 = conditions: A/Miami/2/63, 48 h
H3N2 A/HK/8/1968 = conditions: A/HK/8/1968, 48 h
H9N2 A/Iran/16/2000 = conditions: 48 h

Row | Structure (SMILES) | % inhibition H1N1 ([1]; 500 μM) [%] | % inhibition H3N8 (H3N8 A/Miami/2/63; 500 μM) [%] | % inhibition H3N2 (H3N2 A/HK/8/1968; 500 μM) [%] | % inhibition H9N2 (H9N2 A/Iran/16/2000; 500 μM) [%] | % inhibition H9N2 (H9N2 A/Iran/16/2000; 50 μM) [%] | % inhibition H1N1 ([1]; 50 μM) [%] | % inhibition H3N8 (H3N8 A/Miami/2/63; 50 μM) [%] | % inhibition H3N2 (H3N2 A/HK/8/1968; 50 μM) [%]
1 | C[C@H](O)[C@H]1NC(=O)[C@H](N)CSSC[C@H](C(=O)O)NC(=O)[C@@H](CC(N)=O)NC(=O)[C@@H](CCCNC(=N)N)NC(=O)[C@@H](Cc2ccccc2)NC(=O)[C@@H](CCCNC(=N)N)NC(=O)[C@@H](CO)NC(=O)[C@@H](CCCCN)NC1=O [PSP 15, H-ctksrfrnc-OH] (H-[dC][dT][dK][dS][dR][dF][dR][dN][dC]-OH; disulfide 1-9) | 11.5 | 61.9 | 3.7 | – | – | – | – | –
2 | CC(C)[C@H]1NC(=O)[C@@H](Cc2ccccc2)NC(=O)[C@@H](CCCNC(=N)N)NC(=O)[C@@H](CO)NC(=O)[C@@H](CCCCN)NC(=O)[C@@H]([C@H](C)O)NC(=O)[C@H](N)CSSC[C@H](C(=O)O)NC(=O)[C@@H](CC(N)=O)NC1=O [PSP 18, H-ctksrfvnc-OH] (H-[dC][dT][dK][dS][dR][dF][dV][dN][dC]-OH; disulfide 1-9) | 51.9 | 78.4 | 70.4 | 45.5 | – | – | – | –
3 | C[C@H](O)[C@H]1NC(=O)[C@H](N)CSSC[C@H](C(=O)O)NC(=O)[C@@H](CC(N)=O)NC(=O)[C@@H](Cc2c[nH]c3ccccc23)NC(=O)[C@@H](Cc2ccccc2)NC(=O)[C@@H](CCCNC(=N)N)NC(=O)[C@@H](CO)NC(=O)[C@@H](CCCCN)NC1=O [PSP 19, H-ctksrfwnc-OH] (H-[dC][dT][dK][dS][dR][dF][dW][dN][dC]-OH; disulfide 1-9) | 28.8 | 78.4 | 92.6 | – | – | – | – | –
4 | C[C@H](O)[C@H]1NC(=O)[C@H](N)CSSC[C@H](C(=O)O)NC(=O)[C@@H](CC(N)=O)NC(=O)[C@@H](Cc2ccc(O)cc2)NC(=O)[C@@H](Cc2ccccc2)NC(=O)[C@@H](CCCNC(=N)N)NC(=O)[C@@H](CO)NC(=O)[C@@H](CCCCN)NC1=O [PSP 20, H-ctksrfync-OH] (H-[dC][dT][dK][dS][dR][dF][dY][dN][dC]-OH; disulfide 1-9) | 73.5 | 81.4 | 95.5 | 63.6 | – | – | – | –
5 | CC[C@@H](C)[C@H]1NC(=O)[C@@H](Cc2ccccc2)NC(=O)[C@@H](CCCNC(=N)N)NC(=O)[C@@H](C)NC(=O)[C@@H](Cc2c[nH]c3ccccc23)NC(=O)[C@@H]([C@H](C)O)NC(=O)[C@H](NC(=O)[C@H](CCCCN)NC(=O)[C@H](CCCCN)NC(=O)[C@H](CCCNC(=N)N)NC(=O)[C@@H](N)CCCNC(=N)N)CSSC[C@H](C(=O)O)NC(=O)[C@@H](CC(N)=O)NC1=O [PSP III B1, H-RRKKctwarfinc-OH] (H-RRKK[dC][dT][dW][dA][dR][dF][dI][dN][dC]-OH; disulfide 5-13) | – | – | – | – | 95 | 85 | 96 | 92
6 | CC[C@@H](C)[C@H]1NC(=O)[C@@H](Cc2ccccc2)NC(=O)[C@@H](CCCNC(=N)N)NC(=O)[C@@H](CS)NC(=O)[C@@H](Cc2c[nH]c3ccccc23)NC(=O)[C@@H]([C@H](C)O)NC(=O)[C@H](NC(=O)[C@H](CCCCN)NC(=O)[C@H](CCCCN)NC(=O)[C@H](CCCNC(=N)N)NC(=O)[C@@H](N)CCCNC(=N)N)CSSC[C@H](C(=O)O)NC(=O)[C@@H](CC(N)=O)NC1=O [PSP III B2, H-RRKKctwcrfinc-OH] (H-RRKK[dC][dT][dW][dC][dR][dF][dI][dN][dC]-OH; disulfide 5-13) | – | – | – | – | 74 | 71 | 87 | 96
7 | CC[C@@H](C)[C@H]1NC(=O)[C@@H](Cc2ccccc2)NC(=O)[C@@H](CCCNC(=N)N)NC(=O)[C@@H](CC(=O)O)NC(=O)[C@@H](Cc2c[nH]c3ccccc23)NC(=O)[C@@H]([C@H](C)O)NC(=O)[C@H](NC(=O)[C@H](CCCCN)NC(=O)[C@H](CCCCN)NC(=O)[C@H](CCCNC(=N)N)NC(=O)[C@@H](N)CCCNC(=N)N)CSSC[C@H](C(=O)O)NC(=O)[C@@H](CC(N)=O)NC1=O [PSP III B3, H-RRKKctwdrfinc-OH] (H-RRKK[dC][dT][dW][dD][dR][dF][dI][dN][dC]-OH; disulfide 5-13) | – | – | – | – | 20 | 12 | 43 | 83
8 | CC[C@@H](C)[C@H]1NC(=O)[C@@H](Cc2ccccc2)NC(=O)[C@@H](CCCNC(=N)N)NC(=O)[C@@H](CCC(=O)O)NC(=O)[C@@H](Cc2c[nH]c3ccccc23)NC(=O)[C@@H]([C@H](C)O)NC(=O)[C@H](NC(=O)[C@H](CCCCN)NC(=O)[C@H](CCCCN)NC(=O)[C@H](CCCNC(=N)N)NC(=O)[C@@H](N)CCCNC(=N)N)CSSC[C@H](C(=O)O)NC(=O)[C@@H](CC(N)=O)NC1=O [PSP III B4, H-RRKKctwerfinc-OH] (H-RRKK[dC][dT][dW][dE][dR][dF][dI][dN][dC]-OH; disulfide 5-13) | – | – | – | – | 86 | 81 | 91 | 100
9 | CC[C@@H](C)[C@H]1NC(=O)[C@@H](Cc2ccccc2)NC(=O)[C@@H](CCCNC(=N)N)NC(=O)CNC(=O)[C@@H](Cc2c[nH]c3ccccc23)NC(=O)[C@@H]([C@H](C)O)NC(=O)[C@H](NC(=O)[C@H](CCCCN)NC(=O)[C@H](CCCCN)NC(=O)[C@H](CCCNC(=N)N)NC(=O)[C@@H](N)CCCNC(=N)N)CSSC[C@H](C(=O)O)NC(=O)[C@@H](CC(N)=O)NC1=O [PSP III B6, H-RRKKctwGrfinc-OH] (H-RRKK[dC][dT][dW]G[dR][dF][dI][dN][dC]-OH; disulfide 5-13) | – | – | – | – | 93 | 85 | 96 | 100
